For the test, the system named is P388 leukemia ip, CD2F1 mice, survival T/C. Description: NCI In Vivo Anticancer Drug Screen. Data for tumor model P388 Leukemia (intraperitoneal) in CD2F1 (CDF1) mice. The following applies: endpoint: median survival time, higher = longer survival. In a few lines:
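Mice carrying the transplanted tumor received test compound or vehicle. Survival was recorded in each group, and the value is the treated-group measurement divided by that of the vehicle-treated control group.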

[1] abbreviates: dose: 50.0 mg/kg/injection, schedule: Q01DX005 (ip), vehicle: saline with Tween-80.
Setting [2] is: dose: 100.0 mg/kg/injection, schedule: Q01DX005 (ip), vehicle: saline with Tween-80.
The mark [3] stands for this setting: dose: 200.0 mg/kg/injection, schedule: Q01DX005 (ip), vehicle: saline with Tween-80.
The mark [4] stands for this setting: dose: 50.0 mg/kg/injection, schedule: Q01DX009 (ip), vehicle: saline with Tween-80.
The mark [5] stands for this setting: dose: 100.0 mg/kg/injection, schedule: Q01DX009 (ip), vehicle: saline with Tween-80.
[6] abbreviates: dose: 200.0 mg/kg/injection, schedule: Q01DX009 (ip), vehicle: saline with Tween-80.
Setting [7] is: dose: 12.5 mg/kg/injection, schedule: Q01DX005 (ip), vehicle: Klucel (hydroxypropylcellulose) (HPC).
[8] abbreviates: dose: 25.0 mg/kg/injection, schedule: Q01DX005 (ip), vehicle: Klucel (hydroxypropylcellulose) (HPC).
Setting [9] is: dose: 50.0 mg/kg/injection, schedule: Q01DX005 (ip), vehicle: Klucel (hydroxypropylcellulose) (HPC).
Setting [10] is: dose: 60.0 mg/kg/injection, schedule: Q01DX005 (ip), vehicle: saline with Tween-80.
Where [11] appears, read: dose: 120.0 mg/kg/injection, schedule: Q01DX005 (ip), vehicle: saline with Tween-80.
Where [12] appears, read: dose: 240.0 mg/kg/injection, schedule: Q01DX005 (ip), vehicle: saline with Tween-80.
The mark [13] stands for this setting: dose: 50.0 mg/kg/injection, schedule: Q01DX005 (ip), vehicle: saline.
The mark [14] stands for this setting: dose: 100.0 mg/kg/injection, schedule: Q01DX005 (ip), vehicle: saline.
Setting [15] is: dose: 200.0 mg/kg/injection, schedule: Q01DX005 (ip), vehicle: saline.
Setting [16] is: dose: 60.0 mg/kg/injection, schedule: Q01DX005 (ip), vehicle: Klucel (hydroxypropylcellulose) (HPC).
Setting [17] is: dose: 120.0 mg/kg/injection, schedule: Q01DX005 (ip), vehicle: Klucel (hydroxypropylcellulose) (HPC).
The mark [18] stands for this setting: dose: 240.0 mg/kg/injection, schedule: Q01DX005 (ip), vehicle: Klucel (hydroxypropylcellulose) (HPC).
[19] abbreviates: dose: 100.0 mg/kg/injection, schedule: Q01DX001 (ip), vehicle: saline with Tween-80.
Where [20] appears, read: dose: 200.0 mg/kg/injection, schedule: Q01DX001 (ip), vehicle: saline with Tween-80.
[21] abbreviates: dose: 400.0 mg/kg/injection, schedule: Q01DX001 (ip), vehicle: saline with Tween-80.

For 26 compounds, T/C results are on record in PubChem BioAssay AID330 (DTP/NCI, 2004).

Values joined by “and” are separate entries in the source; they are usually repeats but may differ in a detail not shown here. Identical values can stand only once. Inconclusive results and toxic doses are left out.

`CCOc1cccc(C=NCCS)c1O`: the T/C is 92 % of control under setting [1], 90 % of control under setting [2] and 86 % of control under setting [3].
For the compound `CC(C)CC(N)CO` (stereo not drawn), the T/C by setting is: (dose: 50.0 mg/kg/injection, schedule: Q01DX005 (ip), vehicle: suspension in saline) 105 % of control; (dose: 100.0 mg/kg/injection, schedule: Q01DX005 (ip), vehicle: suspension in saline) 106 % of control; (dose: 200.0 mg/kg/injection, schedule: Q01DX005 (ip), vehicle: suspension in saline) 106 % of control.
Regarding `O=C(O)c1cc(-c2cccc3ccccc23)nc2ccccc12`, the T/C reads like this: under setting [1], 94 % of control; under setting [2], 94 % of control; under setting [3], 94 % of control.
Turning to `CCCSCC(C)C`, the T/C runs as follows: under setting [4], 100 % of control; under setting [5], 100 % of control; under setting [6], 109 % of control.
In the case of `CCN=C(NCC)Nc1ccc(NC(=O)Nc2ccc(NC(=O)Nc3ccc(NC(=NCC)NCC)cc3)cc2)cc1`, the T/C reads like this: (dose: 6.25 mg/kg/injection, schedule: Q01DX005 (ip), vehicle: Klucel (hydroxypropylcellulose) (HPC)) 107 % of control; under setting [7], 117 % of control; under setting [8], 121 % of control and 123 % of control; under setting [9], 117 % of control; (dose: 200.0 mg/kg/injection, schedule: Q01DX005 (ip), vehicle: Klucel (hydroxypropylcellulose) (HPC)) 90 % of control.
In the case of `COc1ccc(C[n+]2cc([O-])on2)cc1`, the T/C is, setting by setting: (dose: 6.25 mg/kg/injection, schedule: Q01DX009 (ip), vehicle: saline with Tween-80) 100 % of control; (dose: 12.5 mg/kg/injection, schedule: Q01DX009 (ip), vehicle: saline with Tween-80) 100 % of control; (dose: 25.0 mg/kg/injection, schedule: Q01DX009 (ip), vehicle: saline with Tween-80) 100 % of control and 104 % of control and 95 % of control; under setting [4], 122 % of control; (dose: 66.0 mg/kg/injection, schedule: Q01DX009 (ip), vehicle: saline with Tween-80) 118 % of control and 122 % of control.
Regarding `COC(=O)C1CC(c2ccccc2)N(c2ccccc2)O1` (stereo not drawn) (tested in a mixture with another compound), the T/C was 95 % of control (dose: 100.0 mg/kg/injection, schedule: Q04DX003 (ip), vehicle: saline with Tween-80); 96 % of control (dose: 200.0 mg/kg/injection, schedule: Q04DX003 (ip), vehicle: saline with Tween-80); 94 % of control (dose: 400.0 mg/kg/injection, schedule: Q04DX003 (ip), vehicle: saline with Tween-80).
On to `Cn1c2ncccc2c(=O)c2c(O)cc3c(c21)C=CC(C)(C)O3`, for which the T/C by setting is: under setting [7], 100 % of control; under setting [8], 102 % of control; under setting [9], 101 % of control and 93 % of control.
As to `O=c1c2ccccc2[nH]c2cc3c(=O)n4ccccc4nc3cc12`, the T/C by setting is: (dose: 30.0 mg/kg/injection, schedule: Q01DX005 (ip), vehicle: saline with Tween-80) 94 % of control; under setting [10], 101 % of control and 91 % of control; under setting [11], 93 % of control; under setting [12], 93 % of control.
With `O=C(O)CNC(=O)C(Cl)Cl`, the T/C under setting [13] is 100 % of control, the T/C under setting [14] is 100 % of control and the T/C under setting [15] was 90 % of control.
On to `O=C(CN1CCC(O)(c2ccc(F)cc2)CC1)N1CCN(C/C=C/c2ccccc2)CC1`, for which the T/C was 96 % of control under setting [16], 95 % of control under setting [17] and 95 % of control under setting [18].
Consider `CC(C)C(OCc1ccccc1)C(=O)O` (stereo not drawn), for which the T/C runs as follows: (dose: 50.0 mg/kg/injection, schedule: Q01DX009 (ip), vehicle: alcohol) 88 % of control; (dose: 100.0 mg/kg/injection, schedule: Q01DX009 (ip), vehicle: alcohol) 98 % of control; (dose: 200.0 mg/kg/injection, schedule: Q01DX009 (ip), vehicle: alcohol) 104 % of control.
As to `COC(=O)C(=O)c1cc(=O)[nH]c(NC(C)=O)n1`, the T/C by setting is: under setting [19], 107 % of control; under setting [20], 101 % of control; under setting [21], 107 % of control.
As to `O=C(Nc1ccc(S(=O)(=O)c2ccc(NC(=O)c3ccco3)cc2)cc1)c1ccco1`, the T/C under setting [4] is 105 % of control, the T/C under setting [5] was 98 % of control and the T/C under setting [6] was 95 % of control.
The corresponding values for `C/C=C/Cc1nnc(C)c2c(C)[nH]nc12` are 100 % of control, 96 % of control and 102 % of control.
`C1OC1CO[C@H]1CO[C@H]2[C@@H]1OC[C@@H]2OCC1CO1` (stereo partly drawn): the T/C (dose: 600.0 mg/kg/injection, schedule: Q04DX003 (ip), vehicle: saline) is 172 % of control.
Consider `Nc1nc2ncc(CCNc3ccc(C(=O)NC(CCC(=O)O)C(=O)O)cc3)nc2c(=O)[nH]1` (stereo not drawn), for which the T/C is 98 % of control (dose: 12.5 mg/kg/injection, schedule: Q01DX009 (ip), vehicle: Klucel (hydroxypropylcellulose) (HPC)); 103 % of control (dose: 25.0 mg/kg/injection, schedule: Q01DX009 (ip), vehicle: Klucel (hydroxypropylcellulose) (HPC)); 107 % of control (dose: 50.0 mg/kg/injection, schedule: Q01DX009 (ip), vehicle: Klucel (hydroxypropylcellulose) (HPC)); 93 % of control (dose: 100.0 mg/kg/injection, schedule: Q01DX009 (ip), vehicle: Klucel (hydroxypropylcellulose) (HPC)).
On to `[Mn+2].[NH-]CC(=O)NC(Cc1ccccc1)C(=O)O.[NH-]CC(=O)NC(Cc1ccccc1)C(=O)O` (stereo not drawn), for which the T/C by setting is: (dose: 100.0 mg/kg/injection, schedule: Q04DX003 (ip), vehicle: saline) 113 % of control; (dose: 200.0 mg/kg/injection, schedule: Q04DX003 (ip), vehicle: saline) 116 % of control.
As for `CC(=O)Oc1cc2oc([O-])c[n+]2c2ccccc12`, the T/C (dose: 50.0 mg/kg/injection, schedule: Q01DX001 (ip), vehicle: saline with Tween-80) is 106 % of control; the T/C (dose: 60.0 mg/kg/injection, schedule: Q01DX005 (ip), vehicle: Klucel + Tween-80) was 124 % of control; the T/C under setting [19] is 113 % of control and 124 % of control; the T/C under setting [20] was 106 % of control and 121 % of control.
With `C/C(=N/NC(=S)N1CC2CCC(CC2)C1)c1cnccn1`, the T/C is, setting by setting: (dose: 6.25 mg/kg/injection, schedule: Q01DX005 (ip), vehicle: saline with Tween-80) 102 % of control; (dose: 12.5 mg/kg/injection, schedule: Q01DX005 (ip), vehicle: saline with Tween-80) 117 % of control.
With `Cc1cc(=O)[nH]c(=O)n1CCCN(C)CCCn1c(C)cc(=O)[nH]c1=O`, the T/C by setting is: under setting [10], 99 % of control; under setting [11], 103 % of control; under setting [12], 102 % of control.
For the compound `CCOC(=O)c1ccc(NC(=O)Nc2cc(OC)ccc2OC)cc1`, the T/C is 98 % of control under setting [16], 99 % of control under setting [17] and 101 % of control under setting [18].
For the compound `CC(=O)C[n+]1ccccc1C`, the T/C was 93 % of control under setting [1] and 107 % of control under setting [2].
As for `CSCc1cc(C)ccc1NC(C)=O`, the T/C reads like this: (dose: 50.0 mg/kg/injection, schedule: Q04DX002 (ip), vehicle: saline with Tween-80) 98 % of control; under setting [19], 99 % of control; (dose: 100.0 mg/kg/injection, schedule: Q04DX002 (ip), vehicle: saline with Tween-80) 98 % of control; under setting [20], 99 % of control; (dose: 200.0 mg/kg/injection, schedule: Q04DX002 (ip), vehicle: saline with Tween-80) 102 % of control; under setting [21], 100 % of control.
For the compound `CNNC(=O)C(=O)n1ccnc1`, the T/C runs as follows: under setting [13], 104 % of control; under setting [14], 103 % of control; under setting [15], 101 % of control.
For `CN(N=O)C(=O)NCCSSCCNC(=O)N(C)N=O`, the T/C is 115 % of control (dose: 20.0 mg/kg/injection, schedule: Q04DX003 (ip), vehicle: saline with Tween-80); 177 % of control (dose: 40.0 mg/kg/injection, schedule: Q01DX009 (ip), vehicle: saline with Tween-80); 155 % of control (dose: 80.0 mg/kg/injection, schedule: Q04DX003 (ip), vehicle: saline with Tween-80).
